Results as given in patent US9562021B2, “Histone deacetylase inhibitors and compositions and methods of use thereof” (CHDI Foundation, Inc., priority 2013, dated 2017).
Like-named read-outs stand apart in the source and are kept apart here.

Experiments:
HDAC4 [1] = target: T1, HDAC4 (Homo sapiens, UniProt P56524); test: HDAC4 (bioch) IC50; assay type: biochemical
HDAC4 [2] = target: T1, HDAC4; test: HDAC4 (cell) IC50; assay type: cell-based; settings: Table 3
[3] = MDCK apparent permeability (Papp A>B); assay type: in vitro ADME; settings: dog, pH 7.4
[4] = Hepatic microsomal stability, mouse; assay type: in vitro ADME; settings: mouse liver microsomes
[5] = PK study (iv and po 10 mg/kg), plasma, brain and muscle; assay type: in vivo; settings: for clearance: read-out: Clearance (CLp) (converted); for Vd: read-out: Volume of Distribution at Steady State (Vdss)
[6] = tested on: cellular histone deacetylase activity in Jurkat E6-1 cells; test: Inhibition of cellular HDAC activity, Boc-Lys(Tfa)-AMC substrate; assay type: cell-based; settings: Homo sapiens, Class IIa selective substrate
Excerpt: The potency of exemplifying compounds described herein is quantified by measuring the cellular histone deacetylase enzymatic activity using the Class IIa selective substrate, Boc-Lys(Tfa)-AMC. After penetration in Jurkat E6-1 cells, the substrate is deacetylated to Boc-Lys-AMC. After cell lysis and cleavage by trypsin, the fluorophore AMC is released from the deacetylated substrate only. The fluoresence of the sample is directly related to the histone deacetylase activity in the sample.
Jurkat E6.1 Cell Culture and Plating. Jurkat E6.1 cells are cultured according to standard cell culture protocols in Jurkat E6.1 Growth Media (RPMI without phenol red, 10% FBS, 10 mM HEPES, and 1 mM Sodium Pyruvate). Jurkat E6.1 cells are counted using a Coulter Counter and resuspended in Jurkat E6.1 growth media at a concentration of 75,000 cells/35 μL. 35 μL or 75,000 cells is seeded into Greiner microtitre assay plates. The plates are then incubated at 37° C. and 5% CO2 while other assay components are being prepared.
Serially Dilute HDAC Inhibitor Compounds. […]
Assay. […] Finally the top read fluorescence (Excitation: 355 nm, Emission: 460 nm) is measured using PerkinElmer EnVision.

Boc-Lys(Ac) = Boc-Lys(Ac) IC50; assay type: cell-based
[7] = target: T2, human HDAC5 catalytic domain (Homo sapiens, UniProt Q9UQL6); test: Inhibition of HDAC5 catalytic domain, Boc-Lys(Tfa)-AMC substrate; assay type: biochemical
T2 construct: amino acids 657-1123 with a C-terminal His tag; His (C); purchased BPS BioScience; host or cells: baculovirus expression system

human HDAC7 = target: T3, human HDAC7 (Homo sapiens, UniProt Q8WUI4); test: Inhibition of HDAC7, Boc-Lys(Tfa)-AMC substrate; assay type: biochemical
T3 construct: amino acids 518-end with a N-terminal Glutathione S-transferase (GST) tag; GST (N); purchased BPS BioScience; host or cells: baculovirus expression system
T3 sequence (Q8WUI4 518-952 limits assumed): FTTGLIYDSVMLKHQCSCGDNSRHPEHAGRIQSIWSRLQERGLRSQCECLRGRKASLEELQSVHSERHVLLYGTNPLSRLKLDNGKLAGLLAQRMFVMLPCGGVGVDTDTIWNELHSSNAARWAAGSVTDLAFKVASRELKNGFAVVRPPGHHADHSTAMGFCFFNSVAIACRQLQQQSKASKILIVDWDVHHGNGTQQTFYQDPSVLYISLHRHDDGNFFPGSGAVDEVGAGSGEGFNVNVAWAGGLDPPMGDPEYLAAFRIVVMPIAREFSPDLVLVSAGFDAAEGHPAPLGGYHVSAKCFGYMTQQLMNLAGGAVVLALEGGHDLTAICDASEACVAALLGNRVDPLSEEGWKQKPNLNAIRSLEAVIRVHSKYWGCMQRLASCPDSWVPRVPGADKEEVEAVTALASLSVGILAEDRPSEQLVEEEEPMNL

human HDAC9 = target: T4, human HDAC9 (Homo sapiens, UniProt Q9UKV0); test: Inhibition of HDAC9, Boc-Lys(Tfa)-AMC substrate; assay type: biochemical
T4 construct: amino acids 604-1066 with a C-terminal His tag; His (C); purchased BPS BioScience; host or cells: baculovirus expression system

HDAC3 = HDAC3 (Homo sapiens, UniProt O15379); test: cat. HDAC3 IC50; assay type: biochemical
HDAC8 = target: T5, HDAC8 (Homo sapiens, UniProt Q9BY41); test: cat. HDAC8 IC50; assay type: biochemical
T5 sequence (Q9BY41 1-377): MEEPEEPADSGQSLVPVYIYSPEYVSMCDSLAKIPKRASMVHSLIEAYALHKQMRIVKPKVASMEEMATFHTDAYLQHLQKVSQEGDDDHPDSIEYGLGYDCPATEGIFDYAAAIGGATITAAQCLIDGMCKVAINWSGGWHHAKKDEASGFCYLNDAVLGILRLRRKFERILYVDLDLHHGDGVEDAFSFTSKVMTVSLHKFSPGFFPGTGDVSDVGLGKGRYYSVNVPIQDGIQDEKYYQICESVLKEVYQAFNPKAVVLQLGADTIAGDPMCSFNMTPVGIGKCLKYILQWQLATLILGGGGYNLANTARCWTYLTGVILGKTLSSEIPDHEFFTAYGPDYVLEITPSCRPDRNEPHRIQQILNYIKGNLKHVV

HDAC6 = target: T6, HDAC6 (Homo sapiens, UniProt Q9UBN7); test: cat. HDAC6 IC50; assay type: biochemical
T6 sequence (Q9UBN7 1-1215): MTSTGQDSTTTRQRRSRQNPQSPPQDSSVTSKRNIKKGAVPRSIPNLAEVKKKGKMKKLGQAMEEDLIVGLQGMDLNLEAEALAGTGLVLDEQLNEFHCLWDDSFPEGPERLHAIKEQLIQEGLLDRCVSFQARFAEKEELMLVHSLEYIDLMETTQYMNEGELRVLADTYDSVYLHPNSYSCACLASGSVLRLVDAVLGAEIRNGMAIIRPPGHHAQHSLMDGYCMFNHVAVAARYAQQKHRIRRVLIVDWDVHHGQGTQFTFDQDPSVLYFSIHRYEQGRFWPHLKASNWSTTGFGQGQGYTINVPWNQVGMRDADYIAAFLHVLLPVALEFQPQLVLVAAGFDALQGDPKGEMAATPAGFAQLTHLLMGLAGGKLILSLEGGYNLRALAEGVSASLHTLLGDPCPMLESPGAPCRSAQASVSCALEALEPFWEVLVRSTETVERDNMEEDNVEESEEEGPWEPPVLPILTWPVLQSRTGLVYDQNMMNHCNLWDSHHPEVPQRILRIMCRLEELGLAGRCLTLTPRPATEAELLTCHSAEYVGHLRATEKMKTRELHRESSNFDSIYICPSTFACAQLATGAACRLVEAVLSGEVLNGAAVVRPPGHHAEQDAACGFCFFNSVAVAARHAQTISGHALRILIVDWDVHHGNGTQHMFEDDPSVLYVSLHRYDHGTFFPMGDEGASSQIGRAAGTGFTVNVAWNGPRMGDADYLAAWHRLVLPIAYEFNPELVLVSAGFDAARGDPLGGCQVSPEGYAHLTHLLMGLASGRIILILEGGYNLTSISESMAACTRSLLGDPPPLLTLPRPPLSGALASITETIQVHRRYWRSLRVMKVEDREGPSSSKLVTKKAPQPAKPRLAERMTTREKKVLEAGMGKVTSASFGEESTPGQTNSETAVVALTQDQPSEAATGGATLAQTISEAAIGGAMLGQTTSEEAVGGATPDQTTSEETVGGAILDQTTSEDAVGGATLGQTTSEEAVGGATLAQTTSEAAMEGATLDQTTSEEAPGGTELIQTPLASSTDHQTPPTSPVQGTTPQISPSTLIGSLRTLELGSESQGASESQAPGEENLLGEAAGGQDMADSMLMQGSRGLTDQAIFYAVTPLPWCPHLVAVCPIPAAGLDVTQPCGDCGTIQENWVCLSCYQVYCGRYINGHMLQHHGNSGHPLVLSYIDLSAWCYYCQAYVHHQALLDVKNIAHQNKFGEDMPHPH

[8] = Table 3, read-out: IC50 μM (bioch)
[9] = 5 mg eq./Kg, IV PK, brain, read-out: Brain-plasma
[10] = 5 mg eq./Kg, IV PK, muscle section, read-out: Brain-plasma
[11] = 10 mg/Kg, Oral PK, brain, read-out: Brain-plasma
[12] = 10 mg/Kg, Oral PK, muscle, read-out: Muscle-plasma

T1 sequence (P56524 whole entry): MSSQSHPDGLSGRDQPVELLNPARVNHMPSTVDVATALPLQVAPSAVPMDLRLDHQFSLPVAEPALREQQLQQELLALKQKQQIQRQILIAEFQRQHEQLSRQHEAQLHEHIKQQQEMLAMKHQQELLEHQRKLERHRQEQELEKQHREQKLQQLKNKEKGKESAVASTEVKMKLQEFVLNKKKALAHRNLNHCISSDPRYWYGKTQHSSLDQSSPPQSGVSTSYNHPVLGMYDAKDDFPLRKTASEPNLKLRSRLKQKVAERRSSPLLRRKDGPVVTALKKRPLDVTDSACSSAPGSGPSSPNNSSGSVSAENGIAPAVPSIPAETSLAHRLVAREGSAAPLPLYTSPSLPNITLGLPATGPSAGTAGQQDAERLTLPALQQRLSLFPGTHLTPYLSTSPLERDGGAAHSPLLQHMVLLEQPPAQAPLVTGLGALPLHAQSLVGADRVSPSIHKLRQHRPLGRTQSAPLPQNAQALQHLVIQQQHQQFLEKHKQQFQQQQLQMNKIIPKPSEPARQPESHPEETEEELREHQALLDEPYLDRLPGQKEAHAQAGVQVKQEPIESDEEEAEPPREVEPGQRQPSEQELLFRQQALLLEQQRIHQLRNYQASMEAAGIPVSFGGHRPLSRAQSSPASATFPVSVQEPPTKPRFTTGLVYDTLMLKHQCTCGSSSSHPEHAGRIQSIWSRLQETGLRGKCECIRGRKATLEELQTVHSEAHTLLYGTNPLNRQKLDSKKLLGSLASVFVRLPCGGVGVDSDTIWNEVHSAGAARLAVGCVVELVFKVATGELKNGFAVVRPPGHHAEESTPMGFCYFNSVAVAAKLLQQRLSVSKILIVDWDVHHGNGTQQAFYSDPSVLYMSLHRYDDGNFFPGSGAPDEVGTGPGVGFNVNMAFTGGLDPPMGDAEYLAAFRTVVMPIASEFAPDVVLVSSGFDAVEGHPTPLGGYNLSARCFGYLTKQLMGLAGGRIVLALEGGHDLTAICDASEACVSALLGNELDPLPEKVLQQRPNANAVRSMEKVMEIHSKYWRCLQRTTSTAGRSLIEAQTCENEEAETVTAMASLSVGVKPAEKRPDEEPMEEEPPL
T2 sequence (Q9UQL6 656-1122): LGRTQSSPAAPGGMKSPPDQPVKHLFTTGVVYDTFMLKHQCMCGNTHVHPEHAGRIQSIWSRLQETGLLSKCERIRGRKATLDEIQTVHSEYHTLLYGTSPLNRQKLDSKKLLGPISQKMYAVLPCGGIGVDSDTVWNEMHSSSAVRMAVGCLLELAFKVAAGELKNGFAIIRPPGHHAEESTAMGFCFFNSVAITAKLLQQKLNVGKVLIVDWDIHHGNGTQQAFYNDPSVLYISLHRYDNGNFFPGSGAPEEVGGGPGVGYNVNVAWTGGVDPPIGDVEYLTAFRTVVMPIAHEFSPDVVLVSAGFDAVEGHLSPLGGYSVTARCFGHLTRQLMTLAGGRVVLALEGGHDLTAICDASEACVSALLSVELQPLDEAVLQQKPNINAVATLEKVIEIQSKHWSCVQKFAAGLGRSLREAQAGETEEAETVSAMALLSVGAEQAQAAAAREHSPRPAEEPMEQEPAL
T4 sequence (Q9UKV0 604-1066 isoform Q9UKV0-5): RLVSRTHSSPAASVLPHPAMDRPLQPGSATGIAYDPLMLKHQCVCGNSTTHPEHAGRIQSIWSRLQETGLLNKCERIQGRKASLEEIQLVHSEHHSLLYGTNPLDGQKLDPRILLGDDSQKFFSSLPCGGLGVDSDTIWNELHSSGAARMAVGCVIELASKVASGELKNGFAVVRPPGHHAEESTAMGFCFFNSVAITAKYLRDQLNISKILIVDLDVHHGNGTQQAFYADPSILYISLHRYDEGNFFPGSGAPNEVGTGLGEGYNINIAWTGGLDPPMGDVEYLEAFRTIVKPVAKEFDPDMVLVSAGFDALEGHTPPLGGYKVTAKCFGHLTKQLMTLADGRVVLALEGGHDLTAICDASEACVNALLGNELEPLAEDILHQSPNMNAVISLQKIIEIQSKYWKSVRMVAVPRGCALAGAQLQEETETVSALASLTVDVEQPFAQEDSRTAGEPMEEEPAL
Chain of HDAC3 (O15379 whole entry): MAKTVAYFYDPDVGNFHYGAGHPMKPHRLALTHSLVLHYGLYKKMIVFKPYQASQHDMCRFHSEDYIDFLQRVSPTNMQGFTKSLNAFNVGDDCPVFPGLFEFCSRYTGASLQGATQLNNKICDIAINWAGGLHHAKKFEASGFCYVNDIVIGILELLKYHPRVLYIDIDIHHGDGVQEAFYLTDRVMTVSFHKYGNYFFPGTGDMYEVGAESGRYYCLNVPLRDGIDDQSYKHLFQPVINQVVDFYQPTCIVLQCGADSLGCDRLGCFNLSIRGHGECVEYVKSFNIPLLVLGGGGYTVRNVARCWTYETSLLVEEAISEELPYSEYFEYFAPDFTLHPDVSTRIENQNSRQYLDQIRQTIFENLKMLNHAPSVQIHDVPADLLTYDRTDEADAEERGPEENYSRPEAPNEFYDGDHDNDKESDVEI
Chain of HDAC3 (Q9Y618 395-489 partner limits assumed): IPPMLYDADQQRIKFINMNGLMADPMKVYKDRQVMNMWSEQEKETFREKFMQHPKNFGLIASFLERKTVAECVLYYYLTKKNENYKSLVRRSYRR

Row | IC50 (HDAC4 [1]; [8]) [µM] | IC50 (HDAC4 [2]) [µM] | Papp A→B at 1 h, 10 μM [3] [×10⁻⁶ cm/s] | MLM [4] [mL/min/kg BW] | half-life ([5]; 5 mg eq./Kg, IV PK, brain) [h] | Kp [5, 9] | half-life ([5]; 5 mg eq./Kg, IV PK, muscle) [h] | Kp [5, 10] | half-life ([5]; 5 mg eq./Kg, IV PK, plasma) [h] | clearance ([5]; 5 mg eq./Kg, IV PK, plasma) [mL/min/kg] | Vd ([5]; 5 mg eq./Kg, IV PK, plasma) [L/kg] | Kp [5, 11] | Kp [5, 12] | AUCnorm ([5]; IV PK, brain) [nM·kg·h/mg] | AUCnorm ([5]; IV PK, muscle) [nM·kg·h/mg] | AUCnorm ([5]; IV PK, plasma) [nM·kg·h/mg] | AUCnorm ([5]; Oral PK, brain) [nM·kg·h/mg] | AUCnorm ([5]; Oral PK, muscle) [nM·kg·h/mg] | AUCnorm ([5]; Oral PK, plasma) [nM·kg·h/mg] | Bioavaiability ([5]; Oral PK, plasma) [%] | Compound | further results
1 | 0.07 | 0.64 | 23.4 | 93 | 3.3 | 0.54 to 8.9 | 4.8 | 1.9 to 21 | 1.8 | 123 | 3.1 | 0.67 to 3.4 | 1.5 to 5.2 | 511 | 1048 | 409 | 151 | 260 | 109 | 27 | O=C(NO)C(c1ccc(N2CCOCC2)cc1)c1ccccc1F (centres unmarked) | Observed CmaxNorm ([5]; Oral PK, plasma): 95 nM·kg/mg
2 | – | – | – | – | – | – | – | – | – | – | – | – | – | – | – | – | – | – | – | – | Cc1ncc(-c2ccc(C(C(=O)NO)c3ccccc3F)cc2)cn1 (centres unmarked) [Compound 6, 2-(2-fluorophenyl)-N-hydroxy-2-(4-(2-methylpyrimidin-5-yl)phenyl)acetamide] | IC50 [6]: 120 nM; IC50 (Boc-Lys(Ac)): > 50000 nM
3 | – | – | – | – | – | – | – | – | – | – | – | – | – | – | – | – | – | – | – | – | O=C(NO)C(c1ccc(-c2ncc(C(F)(F)F)cn2)cc1)c1ccccc1F (centres unmarked) [Compound 8, 2-(2-fluorophenyl)-N-hydroxy-2-(4-(5-(trifluoromethyl)pyrimidin-2-yl)phenyl)acetamide] | IC50 [6]: 59 nM; IC50 (Boc-Lys(Ac)): > 50000 nM
4 | 0.09 | 0.55 | 17.5 | 77 | 2.2 | 0.12 to 2 | 4 | 1.1 to 8.9 | 1.8 | 107 | 2.6 | 0.15 to 1.4 | 1 to 8 | 162 | 835 | 516 | 58 | 306 | 179 | 35 | O=C(NO)C(c1ccccc1)c1ccc(-c2cncnc2)cc1 (centres unmarked) [drawing 19] | half-life ([5]; 10 mg/Kg, Oral PK, brain): 2.7 h; half-life ([5]; 10 mg/Kg, Oral PK, muscle): 4 h; half-life ([5]; 10 mg/Kg, Oral PK, plasma): 1.9 h; Observed CmaxNorm ([5]; Oral PK, plasma): 257 nM·kg/mg
5 | – | – | – | – | – | – | – | – | – | – | – | – | – | – | – | – | – | – | – | – | O=C(NO)C(c1ccccc1)c1ccc(-c2cncnc2)cc1 (centres unmarked) [drawing 21] | Fold Selectivity (bioch) HDAC5:HDAC4 [7]: 0.3; Fold Selectivity (bioch) HDAC7:HDAC4 (human HDAC7): 0.8; Fold Selectivity (bioch) HDAC9:HDAC4 (human HDAC9): 1; IC50 (HDAC4 [1]; Table 4, bioch, read-out: HDAC4): 0.09 µM; Fold Selectivity (bioch) HDAC3:HDAC4 (HDAC3): 320; Fold Selectivity (bioch) HDAC8:HDAC4 (HDAC8): 60; Fold Selectivity (bioch) HDAC6:HDAC4 (HDAC6): 50
